{
  "source": "paper PMC6138628",
  "about": "“Enhanced uptake of gH625 by blood brain barrier compared to liver in vivo: characterization of the mechanism by an in vitro model and implications for delivery” (Scientific Reports, 2018)",
  "key": {"[1]": {"assay": "Circular dichroism spectroscopy in aqueous solution", "format": "physicochemical", "conditions": "room temperature", "method": "CD spectra were recorded at room temperature on a Jasco J-715 spectropolarimeter in a 0.1 cm quartz cell. The spectra are an average of 3 consecutive scans from 260 to 190 nm, recorded with a band width of 3 nm, a time constant of 16 s, and a scan rate of 10 nm/min. Spectra were recorded and corrected for the blank. Mean residue ellipticities (MRE) were calculated as MRE = Obsd/lcn (Obsd is the ellipticity measured in millidegrees, l is the path length of the cell in cm, c is the peptide concentration in mol/l, and n is the number of amino acid residues in the peptide). A solution of 8 µM of peptide with SUVs, was prepared as previously described. […] The percentage of helix was calculated from measurements of their mean residue ellipticity at 222 nm[44]. We used [ϑ]222 values of 0 and −40.000(1–2.5/n) deg cm^2 dmol^−1 per amino acid residue for 0% and 100% helicity; n is the number of amino acid residues. The ratio of the ellipticities at 222 and 208 nm were used to discriminate between monomeric and oligomeric states of helices. The experiment was performed before and after centrifugation to remove eventual precipitated peptides from solution."}, "[2]": {"conditions": "previous work; cited from earlier work", "from_the_text": "In general a high accumulation in the target tissue results in an improved therapeutic effect, while a large amount of drug distributed to non-target organs may cause unwanted toxicity and/or side effects. It is thus fundamental to reduce liver metabolism and renal clearance to produce prolonged blood circulation with an i ..."}},
  "note": "Residues, ends and D or L forms follow the SMILES beside them.",
  "data": [
    {"smiles": "CC[C@H](C)[C@H](NC(=O)[C@H](CC(C)C)NC(=O)[C@H](C)NC(=O)[C@H](CC(N)=O)NC(=O)[C@H](Cc1ccc(O)cc1)NC(=O)[C@H](Cc1c[nH]cn1)NC(=O)[C@H](C)NC(=O)[C@H](Cc1c[nH]c2ccccc12)NC(=O)[C@H](CCCNC(=N)N)NC(=O)[C@@H](NC(=O)[C@H](CC(C)C)NC(=O)[C@@H](NC(=O)[C@H](CO)NC(=O)[C@H](C)NC(=O)[C@H](CC(C)C)NC(=O)CNC(=O)[C@@H](N)Cc1c[nH]cn1)[C@@H](C)O)[C@@H](C)O)C(=O)N[C@@H](CCCNC(=N)N)C(=O)N[C@@H](C)C(=O)N[C@@H](Cc1ccccc1)C(N)=O", "note": "[gH625] (H-HGLASTLTRWAHYNALIRAF-NH2)", "values": [
      {"measurement": "Secondary structure by CD", "setting": "[1]", "value": "mainly random coil structure"},
      {"measurement": "Alterations of cell viability or maximal mitochondrial oxidative capacity linked to uptake", "setting": "[2]", "value": "not linked to alterations of cell viability or maximal mitochondrial oxidative capacity"}
    ]}
  ]
}
